Reference: patent US20230192626A1 (Baylor College of Medicine, priority 2020, published 2023)

target: T1, Human sEH (hsEH) (Homo sapiens, UniProt P34913); assay: fluorescence-based sEH biochemical inhibition assay (PHOME substrate); conditions: Table 1; hsEH 5 nM, PHOME 50 μM, 30° C.
T1 construct: purchased Cayman Chemicals
T1 sequence (P34913 1-555): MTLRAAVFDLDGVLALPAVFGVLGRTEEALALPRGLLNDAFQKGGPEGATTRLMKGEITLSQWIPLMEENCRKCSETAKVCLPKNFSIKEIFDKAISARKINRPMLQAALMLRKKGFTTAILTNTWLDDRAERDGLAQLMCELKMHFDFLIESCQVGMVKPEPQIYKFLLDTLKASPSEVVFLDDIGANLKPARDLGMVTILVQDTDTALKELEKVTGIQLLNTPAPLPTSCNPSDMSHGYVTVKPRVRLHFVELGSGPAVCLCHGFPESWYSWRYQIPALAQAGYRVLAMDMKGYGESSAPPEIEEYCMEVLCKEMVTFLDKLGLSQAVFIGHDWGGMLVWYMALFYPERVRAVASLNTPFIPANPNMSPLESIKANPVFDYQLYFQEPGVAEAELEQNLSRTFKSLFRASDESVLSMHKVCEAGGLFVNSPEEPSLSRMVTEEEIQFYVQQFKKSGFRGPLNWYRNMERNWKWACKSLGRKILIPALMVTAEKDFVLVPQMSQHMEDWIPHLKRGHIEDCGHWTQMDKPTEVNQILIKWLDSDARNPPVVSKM
Procedure: The benzimidazole-based compounds synthesized according to Example 1 were measured for activity. Using a fluorescence-based sEH biochemical inhibition assay, the IC50 value was measured for each benzimidazole-based compound. Human sEH (hsEH) and its substrate PHOME were purchased from Cayman Chemicals. IC50 values of hsEH inhibitors were determined by fluorescence. IC50 is defined as the concentration of the inhibitor that blocks 50% of the enzymatic activity. To a 96-well plate containing 10 μL enzyme (5 nM in water), 60 μL of H2O and 10 μL BisTris-HCl buffer (25 mM, pH 7.0) were added inhibitors with different concentrations. The mixture was incubated for 5 min at 30° C. prior to addition of 10 μL of PHOME substrate (50 μM). Fluorescence were measured at 30° C. with an excitation wavelength of 330 nm and an emission wavelength of 465 nm using a BioTek H1 plate reader. The IC50 values were calculated by non-linear regression fitting. The curve was generated from at least three separate runs, each in duplicates. Results are given as means and standard deviations. In Table 1, an IC50 value less than or equal to 1 μM is indicated as an “A.” an IC50 value from greater than 1 μM to less than 10 μM is indicated as a “B′” and an IC50 value of greater than or equal to 10 μM is indicated as a “C.”
Additional benzimidazole-based compounds as described herein were measured for activity according to the procedure outlined in Example 2. Briefly, using a fluorescence-based sEH biochemical inhibition assay, the IC50 value was measured for each benzimidazole-based compound.

Row | SMILES | IC50 [µM]
1 | CCCN(CCC)S(=O)(=O)c1ccc(-c2nc3cc(C)c(C)cc3[nH]2)cc1 [Compound 3, 4-(5,6-dimethyl-1H-benzo[d]imidazol-2-yl)-N,N-dipropylbenzenesulfonamide] | 1 to 10
2 | Cc1cc2nc(Nc3ccc(C(C)(C)C)cc3)[nH]c2cc1C [Compound 6, N-(4-(tert-butyl)phenyl)-5,6-dimethyl-1H-benzo[d]imidazol-2-amine] | 1 to 10
3 | COc1ccc(Nc2nc3cc(C)c(C)cc3[nH]2)cc1OC [Compound 7, N-(3,4-dimethoxyphenyl)-5,6-dimethyl-1H-benzo[d]imidazol-2-amine] | 1 to 10
4 | Cc1cc2nc(-c3ccccc3O)[nH]c2cc1C [Compound 9, 2-(5,6-dimethyl-1H-benzo[d]imidazol-2-yl)phenol] | ≥ 10
5 | Cc1cc2nc(Oc3ccc(Br)cc3)[nH]c2cc1C [Compound 11, 2-(4-bromophenoxy)-5,6-dimethyl-1H-benzo[d]imidazole] | ≥ 10
6 | O=C(Cc1ccccc1)Nc1nc2ccccc2[nH]1 [Compound 13, N-(1H-benzo[d]imidazol-2-yl)-2-phenylacetamide] | ≥ 10
7 | O=C(Nc1cc(C(F)(F)F)cc(C(F)(F)F)c1)Nc1nc2ccccc2[nH]1 [Compound 14, 1-(1H-benzo[d]imidazol-2-yl)-3-(3,5-bis(trifluoromethyl)phenyl)urea] | ≥ 10
8 | c1ccc(-c2nc3ccccc3[nH]2)c(-c2nc3ccccc3[nH]2)c1 [Compound 15, 1,2-bis(1H-benzo[d]imidazol-2-yl)benzene] | ≥ 10
9 | Fc1cc2nc(-c3ccc(-c4ccccc4)cc3)[nH]c2cc1F [Compound 17, 2-([1,1′-biphenyl]-4-y)-5,6-difluoro-1H-benzo[d]imidazole] | 1 to 10
10 | Cc1cc2nc(C3CCN(C)CC3)[nH]c2cc1C [Compound 18, 5,6-dimethyl-2-(1-methylpiperidin-4-yl)-1H-benzo[d]imidazole] | ≥ 10
11 | Cc1cc2nc(-c3ccccn3)[nH]c2cc1C [Compound 25, 5,6-dimethyl-2-(pyridin-2-yl)-1H-benzo[d]imidazole] | ≥ 10
12 | Cc1cc2nc(-c3ccc(C(C)(C)C)cc3)[nH]c2cc1C [Compound 26, 2-(4-(tert-butyl)phenyl)-5,6-dimethyl-1H-benzo[d]imidazole] | ≤ 1
13 | Cc1cc2nc(-c3cccc(C(C)(C)C)c3)[nH]c2cc1C [Compound 27, 2-(3-(tert-butyl)phenyl)-5,6-dimethyl-1H-benzo[d]imidazole] | ≤ 1
14 | Cc1cc2nc(-c3ccncc3)[nH]c2cc1C [Compound 29, 5,6-dimethyl-2-(pyridin-4-yl)-1H-benzo[d]imidazole] | ≥ 10
15 | Fc1cc2nc(-c3ccoc3)[nH]c2cc1F [Compound 32, 5,6-difluoro-2-(furan-3-yl)-1H-benzo[d]imidazole] | ≥ 10
16 | Oc1ccc(-c2nc3cc(F)c(F)cc3[nH]2)cc1 [Compound 33, 4-(5,6-difluoro-1H-benzo[d]imidazol-2-yl)phenol] | ≥ 10
17 | FC(F)(F)c1ccc(-c2nc3ccccc3[nH]2)cc1 [Compound 36, 2-(4-(trifluoromethyl)phenyl)-1H-benzo[d]imidazole] | 1 to 10
18 | CCc1ccc(-c2nc3ccccc3[nH]2)cc1 [Compound 37, 2-(4-ethylphenyl)-1H-benzo[d]imidazole] | 1 to 10
19 | FC(F)(F)c1ccc(-c2nc3cc(Br)c(Br)cc3[nH]2)cc1 [Compound 38, 5,6-dibromo-2-(4-(trifluoromethyl)phenyl)-1H-benzo[d]imidazole] | ≥ 10
20 | CC(C)(C)c1ccc2[nH]c(-c3ccc(C(F)(F)F)cc3)nc2c1 [Compound 40, 5-(tert-butyl)-2-(4-(trifluoromethyl)phenyl)-1H-benzo[d]imidazole] | 1 to 10
21 | COc1cc2nc(-c3ccc(C(F)(F)F)cc3)[nH]c2cc1OC [Compound 42, 5,6-dimethoxy-2-(4-(trifluoromethyl)phenyl)-1H-benzo[d]imidazole] | 1 to 10

Second part, the compound after the results:

Row | IC50 [µM] | SMILES
22 | ≥ 10 | N[C@@H](c1ccccc1)c1nc2cc(F)c(F)cc2[nH]1 [Compound 1, (S)-(5,6-difluoro-1λ^2-benzo[d]imidazol-2-yl)(phenyl)methanamine]
23 | ≥ 10 | C[C@H](N)c1nc2cc(F)c(F)cc2[nH]1 [Compound 2, (S)-1-(5,6-difluoro-1λ^2-benzo[d]imidazol-2-yl)ethan-1-amine]
24 | 1 to 10 | Cc1cc2nc(Nc3ccc(OC(F)(F)F)cc3)[nH]c2cc1C [Compound 4, 5,6-dimethyl-N-(4-(trifluoromethoxy)phenyl)-1H-benzo[d]imidazol-2-amine]
25 | ≤ 1 | CCc1ccc(-c2nc3cc(C)c(C)cc3[nH]2)cc1 [Compound 5, 2-(4-ethylphenyl)-5,6-dimethyl-1H-benzo[d]imidazole]
26 | ≥ 10 | Cc1cc2nc(-c3ccc(F)cc3F)[nH]c2cc1C [Compound 10, 2-(2,4-difluorophenyl)-5,6-dimethyl-1H-benzo[d]imidazole]
27 | ≥ 10 | Cc1cc2nc(Oc3ccc(OC(F)(F)F)cc3)[nH]c2cc1C [Compound 12, 5,6-dimethyl-2-(4-(trifluoromethoxy)phenoxy)-1H-benzo[d]imidazole]
28 | ≤ 1 | Fc1cc2nc(-c3ccc(C(F)(F)F)cc3)[nH]c2cc1F [Compound 16, 5,6-difluoro-2-(4-(trifluoromethyl)phenyl)-1H-benzo[d]imidazole]
29 | ≤ 1 | Cc1cc2nc(-c3ccc(C(F)(F)F)cc3)[nH]c2cc1C [Compound 19, 5,6-dimethyl-2-(4-(trifluoromethyl)phenyl)-1H-benzo[d]imidazole]
30 | ≤ 1 | Cc1cc2nc(-c3ccc(-c4ccccc4)cc3)[nH]c2cc1C [Compound 20, 2-([1,1′-biphenyl]-4-yl)-5,6-dimethyl-1H-benzo[d]imidazole]
31 | 1 to 10 | Cc1ccc(-c2nc3cc(C)c(C)cc3[nH]2)cn1 [Compound 21, 5,6-dimethyl-2-(6-methylpyridin-3-yl)-1H-benzo[d]imidazole]
32 | 1 to 10 | Cc1cc2nc(-c3ccc(F)cn3)[nH]c2cc1C [Compound 22, 2-(5-fluoropyridin-2-yl)-5,6-dimethyl-1H-benzo[d]imidazole]
33 | ≥ 10 | Cc1cc2nc(-c3ccc(=O)[nH]c3)[nH]c2cc1C [Compound 23, 5-(5,6-dimethyl-1H-benzo[d]imidazol-2-yl)pyridin-2(1H)-one]
34 | 1 to 10 | COc1cc(-c2nc3cc(C)c(C)cc3[nH]2)ccn1 [Compound 24, 2-(2-methoxypyridin-4-yl)-5,6-dimethyl-1H-benzo[d]imidazole]
35 | ≤ 1 | Cc1cc2nc(-c3ccc4ccccc4c3)[nH]c2cc1C [Compound 28, 5,6-dimethyl-2-(naphthalen-2-yl)-1H-benzo[d]imidazole]
36 | ≥ 10 | Cc1cc2nc(-c3cccnc3)[nH]c2cc1C [Compound 30, 5,6-dimethyl-2-(pyridin-3-yl)-1H-benzo[d]imidazole]
37 | ≥ 10 | Cc1cc2nc(-c3ccnn3C)[nH]c2cc1C [Compound 31, 5,6-dimethyl-2-(1-methyl-1H-pyrazol-5-yl)-1H-benzo[d]imidazole]
38 | 1 to 10 | FC(F)(F)c1ccc(-c2nc3cc(Cl)c(Cl)cc3[nH]2)cc1 [Compound 34, 5,6-dichloro-2-(4-(trifluoromethyl)phenyl)-1H-benzo[d]imidazole]
39 | ≤ 1 | CCc1ccc(-c2nc3cc(F)c(F)cc3[nH]2)cc1 [Compound 35, 2-(4-ethylphenyl)-5,6-difluoro-1H-benzo[d]imidazole imidazole]
40 | 1 to 10 | CCc1ccc(-c2nc3cc(Br)c(Br)cc3[nH]2)cc1 [Compound 39, 5,6-dibromo-2-(4-ethylphenyl)-1H-benzo[d]imidazole]
41 | ≤ 1 | Cc1ccc2[nH]c(-c3ccc(C(F)(F)F)cc3)nc2c1C [Compound 41, 4,5-dimethyl-2-(4-(trifluoromethyl)phenyl)-1H-benzo[d]imidazole]
42 | ≤ 1 | Fc1cc2nc(-c3ccc(C(F)(F)F)cc3)[nH]c2cc1Cl [Compound 43, 6-chloro-5-fluoro-2-(4-(trifluoromethyl)phenyl)-1H-benzo[d]imidazole]
43 | ≤ 1 | Fc1cc2nc(-c3ccc(C(F)(F)F)cc3)[nH]c2cc1Br [Compound 44, 6-bromo-5-fluoro-2-(4-(trifluoromethyl)phenyl)-1H-benzo[d]imidazole]
